From patent US9643969B2, “(aza)indolizine derivative and pharmaceutical use thereof” (KISSEI PHARMACEUTICAL CO., LTD., priority 2010, dated 2017)
pIC50: −log10 of the molar value.

What was measured:
[1] = target: T1, Xanthine oxidase (from bovine milk) (Bos taurus, UniProt P80457); assay: Xanthine oxidase inhibitory activity; type: biochemical; settings: xanthine 200 μM added at 100 μL/well, 10 minutes at room temperature, absorbance at 290 nm
T1 construct: Xanthine oxidase (from bovine milk, manufactured by Sigma); purchased Sigma; host or cells: bovine milk
Experimental: Xanthine Oxidase Inhibitory Activity
(1) Preparation of Test Compounds
Test compounds were dissolved in dimethyl sulfoxide (DMSO) (manufactured by Wako pure chemical) at 40 mM concentration and then diluted to intended concentrations with phosphate-buffered saline (PBS).
(2) Method of Measurement
Xanthine oxidase (from bovine milk, manufactured by Sigma) was prepared with phosphate-buffered saline (PBS) at 0.02 units/mL, and then the solution was added to 96-well plates at 50 μL/well. In addition, test compounds diluted with PBS were added at 50 μL/well. Xanthine (manufactured by Wako pure chemical) at 200 μM prepared with PBS was added at 100 μL/well, and the reaction was conducted for 10 minutes at room temperature. Absorbance at 290 nm was measured by using a microplate reader SpectraMax Plus 384 (manufactured by Molecular device). The absorbance under a condition without xanthine is 0%, and control without test compounds is 100%. Fifty % inhibitory concentration of a test compound (IC50) was calculated (Table 4). “Ex. No” in the table indicates Example number.

Acute toxicity test = type: in vivo; settings: 300 mg/kg orally, male ICR mice, 24 hours after administration
Experimental: Test compounds of Examples 2 and 12 (300 mg/kg) suspended in 0.5% methylcellulose solution were orally administered to male ICR mice (7-week-old, 5 mice per group), and the general condition during 24 hours after administration was observed.

[2] = Hypouricemic effect (serum uric acid levels in rats); type: in vivo; settings: oral administration at 1 mg/kg; male CD (SD) IGS rats; serum at 2 hours after administration
Experimental: (1) Method of Measurement
Test compounds (1 mg/kg) suspended in 0.5% methylcellulose solution were orally administered to overnight fasted male CD (SD) IGS rats (5-week-old, Charles River Japan). At 2 hours after administration, blood was collected under ether anesthesia from abdominal aorta, and serum was separated according to a general method. Serum uric acid levels were determined by use of uric acid measurement kit (Uric acid C-Test Wako: manufactured by Wako pure chemical), and percent decrease in uric acid was calculated according to the formula described below. Percent decrease in uric acid (%)=(Serum uric acid levels in control animals−Serum uric acid levels in animals administered test compounds)×100/Serum uric acid levels in control animals (2) Results

human URAT1 = target: T2, human URAT1 (Homo sapiens, UniProt Q96S37); assay: Inhibitory activity of uric acid transport with human URAT1-expressing cells; type: cell-based; settings: 10 μM test compound; URAT1-expressing HEK293 cells; 14C uric acid 50 μM, 2 minutes at 37° C.; read-out: percent inhibition of uric acid uptake
T2 construct: expressed in transfected cells; host or cells: HEK293 cells
T2 sequence (Q96S37 1-553): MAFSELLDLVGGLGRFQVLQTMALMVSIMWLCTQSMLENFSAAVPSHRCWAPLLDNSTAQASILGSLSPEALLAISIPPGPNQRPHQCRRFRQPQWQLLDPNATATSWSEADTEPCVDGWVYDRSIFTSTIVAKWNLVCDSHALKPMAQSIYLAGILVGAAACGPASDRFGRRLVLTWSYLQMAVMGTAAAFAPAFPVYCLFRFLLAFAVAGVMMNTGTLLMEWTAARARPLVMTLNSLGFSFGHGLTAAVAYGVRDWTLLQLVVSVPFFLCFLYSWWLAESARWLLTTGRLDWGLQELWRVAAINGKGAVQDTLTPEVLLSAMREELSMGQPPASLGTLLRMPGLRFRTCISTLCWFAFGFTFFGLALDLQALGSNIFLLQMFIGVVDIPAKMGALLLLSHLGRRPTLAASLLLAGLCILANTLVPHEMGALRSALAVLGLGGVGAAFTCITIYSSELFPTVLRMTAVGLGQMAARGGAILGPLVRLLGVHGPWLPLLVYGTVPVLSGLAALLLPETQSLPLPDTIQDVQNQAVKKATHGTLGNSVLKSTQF
Experimental: Inhibitory Activity of Uric Acid Transport with Human URAT1-Expressing Cells
(1) Cells Used in the Test
URAT1-expressing HEK293 cells (HEK293 cells transfected with vector containing human URAT1 cDNA) and control cells (HEK293 cells transfected with vector alone) were used.
URAT1-expressing cells and control cells were seeded in collagen I-coated 24-well plates (manufactured by BD FALCON) at 1 to 4×10^5 cells/well, and cultured in CO2 incubator (37° C., CO2: 5%) for 1 to 3 days, and then the following measurement of uric acid transport was conducted. In addition, Dulbecco's Modified Eagle Medium (manufactured by Invitrogen) containing 9% fetal bovine serum (manufactured by Invitrogen), antibiotic-antimycotic (manufactured by Invitrogen) and 2 mmol/L L-glutamine were used for the culture.
(2) Preparation of Test Compounds
^14C-labeled uric acid (^14C uric acid) (manufactured by American Radiolabeled Chemicals, Inc.) was dissolved in Hanks' balanced salt solution (HBSS) (manufactured by Invitrogen) to prepare HBSS containing ^14C uric acid at 50 μM. Test compounds were dissolved in DMSO and then diluted to 1000-fold with the prepared HBSS containing ^14C uric acid above to prepare ^14C uric acid solution containing the indicated concentration of test compounds (final concentration of DMSO: 0.1%). ^14C uric acid solution containing 0.1% DMSO was prepared as a control.
(3) Measurement of Uric Acid Transport
After the medium was removed from the plates in which cells were seeded, and 1 mL of HBSS was added to the cells. After the HBSS was removed, 0.3 mL of HBSS was newly added to the cells, which were incubated at 37° C. for 15 minutes. After the HBSS was removed, 0.3 mL of ^14C uric acid solution containing 0.1% DMSO or test compounds was added to the cells, which were then incubated at 37° C. for 2 minutes. After the incubation, the solution was removed, and the cells were washed once with 1 mL of ice-cold phosphate-buffered saline containing 0.2% BSA, and washed twice with 1 mL of ice-cold PBS. After the PBS was removed, the cells were lysed by addition of 0.5 mL of 0.1 mol/L NaOH aqueous solution for each well. The cell lysates (0.3 mL/well) were transferred into glass vials, and mixed with 10 mL of a scintillator (Hionic-Fluor, manufactured by Perkin Elmer). The radioactivity was measured by means of a liquid scintillation counter.
(4) Protein Determination
Protein concentration in the cell lysates was determined by BCA Protein Assay Kit (manufactured by Pierce) and then amount of protein (mg/well) was calculated.
(5) Calculation of the Percent Inhibition of Uric Acid Uptake for Each Compound
Uric acid uptake activity in each well was calculated by the following formula. Uric acid uptake activity (p mol/mg protein)=radioactivity (dpm/well)/[amount of protein (mg/well)×concentration of radioactivity in HBSS containing ^14C uric acid (dpm/p mol)]
Percent inhibition was calculated according to the following formula. Percent inhibition (%)=[1−(B−C)/(A−C)]×100 • A: Uric acid uptake activity in URAT1-expressing HEK293 cells in the presence of 0.1% DMSO • B: Uric acid uptake activity in URAT1-expressing HEK293 cells in the presence of test compounds • C: Uric acid uptake activity in control cells in the presence of 0.1% DMSO (6) Results

T1 sequence (P80457 whole entry): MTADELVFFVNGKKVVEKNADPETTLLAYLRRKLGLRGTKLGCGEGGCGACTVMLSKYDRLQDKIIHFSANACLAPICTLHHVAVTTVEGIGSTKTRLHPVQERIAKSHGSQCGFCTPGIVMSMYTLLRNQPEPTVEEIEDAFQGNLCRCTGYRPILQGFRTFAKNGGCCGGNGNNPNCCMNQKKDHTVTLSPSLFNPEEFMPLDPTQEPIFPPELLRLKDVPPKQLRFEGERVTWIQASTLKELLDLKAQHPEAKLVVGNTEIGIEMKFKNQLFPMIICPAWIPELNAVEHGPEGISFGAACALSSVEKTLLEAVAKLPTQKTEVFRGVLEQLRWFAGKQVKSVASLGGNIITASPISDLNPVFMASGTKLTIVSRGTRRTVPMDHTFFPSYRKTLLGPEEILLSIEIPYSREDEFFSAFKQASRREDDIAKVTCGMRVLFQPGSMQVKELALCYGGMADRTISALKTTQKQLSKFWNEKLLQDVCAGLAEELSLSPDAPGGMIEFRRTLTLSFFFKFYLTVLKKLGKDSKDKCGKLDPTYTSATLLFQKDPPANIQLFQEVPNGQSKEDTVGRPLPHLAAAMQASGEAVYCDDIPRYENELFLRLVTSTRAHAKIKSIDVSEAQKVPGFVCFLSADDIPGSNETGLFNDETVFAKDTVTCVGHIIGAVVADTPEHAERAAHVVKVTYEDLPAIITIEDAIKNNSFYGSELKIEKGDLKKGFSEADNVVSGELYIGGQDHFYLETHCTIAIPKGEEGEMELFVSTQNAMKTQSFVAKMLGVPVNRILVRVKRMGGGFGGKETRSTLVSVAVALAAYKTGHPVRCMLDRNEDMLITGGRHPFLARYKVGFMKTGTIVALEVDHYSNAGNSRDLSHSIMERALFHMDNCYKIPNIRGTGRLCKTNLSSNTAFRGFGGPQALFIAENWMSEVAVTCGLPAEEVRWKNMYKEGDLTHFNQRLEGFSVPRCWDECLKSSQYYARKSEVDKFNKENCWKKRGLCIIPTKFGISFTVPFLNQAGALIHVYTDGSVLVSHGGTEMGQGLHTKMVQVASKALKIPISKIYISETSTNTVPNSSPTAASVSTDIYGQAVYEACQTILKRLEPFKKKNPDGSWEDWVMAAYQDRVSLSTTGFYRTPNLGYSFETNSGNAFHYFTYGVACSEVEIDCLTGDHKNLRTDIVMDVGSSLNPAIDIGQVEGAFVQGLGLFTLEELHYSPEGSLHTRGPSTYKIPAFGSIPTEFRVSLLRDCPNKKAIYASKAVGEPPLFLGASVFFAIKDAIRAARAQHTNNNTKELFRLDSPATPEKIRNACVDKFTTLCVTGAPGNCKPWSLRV

Structure (SMILES): N#Cc1cc(-c2ccc(C(=O)O)cc2)c2cccnn12 [Example 1, 4-(7-Cyanopyrrolo[1,2-b]pyridazine-5-yl)benzoic acid]
- pIC50 [1]: 8.15

Structure (SMILES): N#Cc1cc(-c2ccc(C(=O)O)c(O)c2)c2cccnn12 [Example 2, 4-(7-Cyanopyrrolo[1,2-b]pyridazine-5-yl)-2-hydroxy benzoic acid]
- pIC50 [1]: 8.30
- general condition (Acute toxicity test): no abnormalities in general conditions were observed

Structure (SMILES): Cc1ccc2c(-c3ccc(C(=O)O)c(O)c3)cc(C#N)n2n1 [Example 3]
- percent decrease in uric acid [2]: not less than 60%
- pIC50 [1]: 8.30
- inhibition at 10 µM (human URAT1): ≥ 50%

Structure (SMILES): COc1ccc2c(-c3ccc(C(=O)O)c(O)c3)cc(C#N)n2n1 [Example 6]
- pIC50 [1]: 8.52
- inhibition at 10 µM (human URAT1): ≥ 50%

Structure (SMILES): N#Cc1cc(-c2ccc(C(=O)O)cc2)c2ccccn12 [Example 7]
- pIC50 [1]: 8.10

Structure (SMILES): N#Cc1cc(-c2ccc(C(=O)O)c(O)c2)c2ccccn12 [Example 8]
- pIC50 [1]: 7.92
- inhibition at 10 µM (human URAT1): ≥ 50%

Structure (SMILES): N#Cc1cc(-c2ccc(C(=O)O)c(O)c2)c2ccc(F)cn12 [Example 9]
- pIC50 [1]: 8.40
- inhibition at 10 µM (human URAT1): ≥ 50%

Structure (SMILES): N#Cc1cc(-c2ccc(C(=O)O)cc2)n2ncccc12 [Example 10]
- pIC50 [1]: 7.92

Structure (SMILES): Cc1ccnn2c(-c3ccc(C(=O)O)cc3)cc(C#N)c12 [Example 11, 4-(5-Cyano-4-methylpyrrolo[1,2-b]pyridazine-7-yl)benzoic acid]
- pIC50 [1]: 8.00

Structure (SMILES): N#Cc1cc(-c2ccc(C(=O)O)c(O)c2)n2ncccc12 [Example 12]
- pIC50 [1]: 8.40
- general condition (Acute toxicity test): no abnormalities in general conditions were observed
- inhibition at 10 µM (human URAT1): ≥ 50%

Structure (SMILES): N#Cc1cn(-c2ccc(C(=O)O)c(O)c2)c2cccnc12 [Example 15, 4-(3-Cyanopyrrolo[3,2-b]pyridine-1-yl)-2-hydroxy benzoic acid]
- pIC50 [1]: 8.00

Structure (SMILES): Cc1ccc2c(-c3ccc(C(=O)O)c(O)c3)cc(C#N)n2c1C [Example 16]
- pIC50 [1]: 7.89
- inhibition at 10 µM (human URAT1): ≥ 50%
